Test results as given in US7419780B2, “Methods and assays for screening protein targets” (The Trustees of Columbia University in the City of New York, priority 2000, dated 2008).

Legend:
Assay type in all cases: cell-based, S. cerevisiae
Details in all cases: 1 uM small molecule, difference to activity without small molecule, average of two trials
[1] = target: T1, LexA (GSG)2eDHFR / B42 gly6rGR2 (UniProt P06536+P0ABQ4, C656G/F620S); assay: β-galactosidase activity assay, strain V499Y
T1 construct: rat Glucocorticoid Receptor (aa 524-795) with point mutations; expressed in transfected cells; host or cells: S. cerevisiae FY250
T1 sequence (P0ABQ4 1-159): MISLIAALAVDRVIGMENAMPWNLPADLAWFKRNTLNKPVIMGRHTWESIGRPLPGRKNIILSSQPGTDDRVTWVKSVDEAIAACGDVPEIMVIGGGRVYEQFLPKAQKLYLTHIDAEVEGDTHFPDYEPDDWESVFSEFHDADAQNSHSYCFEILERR
T1 sequence (P06536 524-795 F620S/C656G limits assumed): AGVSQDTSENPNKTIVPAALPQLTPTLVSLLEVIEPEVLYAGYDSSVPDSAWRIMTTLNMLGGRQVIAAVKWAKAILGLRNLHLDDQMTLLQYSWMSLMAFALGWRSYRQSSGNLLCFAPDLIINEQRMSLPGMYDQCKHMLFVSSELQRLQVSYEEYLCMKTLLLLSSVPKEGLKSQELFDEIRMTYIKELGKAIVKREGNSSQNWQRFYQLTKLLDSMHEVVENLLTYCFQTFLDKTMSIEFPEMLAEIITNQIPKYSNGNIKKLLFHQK
Description: (§1) Table III explains the components of each strain. Each strain was constructed from the parent yeast strain FY250 and also contains the pMW106 plasmid, which has the LacZ reporter gene that is turned on only in when the LexA DNA binding domain and the B42 activation are brought in tot he vicinity of each other. We use several different strains because we use DHFR from two different species, mDHFR is from murine, while eDHFR is from E. coli. We are asl oable to switch the small moleculebinding domains. For example, the strain containing LexA-eDHFR with B42-rGH2 is a different strain and behaves differently from the strain containing LexA-rGR2 with B42-eDHFR. We also put in short 6 amino acid linkers between the two domains of our protein chimeras and thus these are different strain as well.
(§2) The results in Table IV are averages of two separate trials. Each strain was examined with small molecules and without small molecules. The absolute activity is given as the β-galactisidase activity […]. The average β-galactosidse activity for a strain without small molecule (i.e. the negative control) was about 100 β-galactosidase units.

[2] = target: T2, LexA rGR2 / B42 (GSG)2mDHFR (UniProt P00375+P06536, C656G/F620S); assay: β-galactosidase activity assay, strain V511Y
T2 construct: expressed in transfected cells; host or cells: S. cerevisiae FY250 with pMW106 lacZ reporter
T2 sequence (P06536 524-795 F620S/C656G limits assumed): T1 sequence (P06536 524-795 F620S/C656G limits assumed)
T2 sequence (P00375 1-187): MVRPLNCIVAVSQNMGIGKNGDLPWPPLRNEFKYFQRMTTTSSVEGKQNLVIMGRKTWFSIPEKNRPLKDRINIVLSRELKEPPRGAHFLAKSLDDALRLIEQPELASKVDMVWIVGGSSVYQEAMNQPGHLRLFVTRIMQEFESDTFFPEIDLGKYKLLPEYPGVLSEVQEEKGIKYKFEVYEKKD
Description: as §1, §2

[3] = target: T3, LexA rGR2 / B42 (GSG)2eDHFR (UniProt P06536+P0ABQ4, C656G/F620S); assay: β-galactosidase activity assay, strain V509Y
T3 construct: expressed in transfected cells; host or cells: S. cerevisiae FY250 with pMW106 lacZ reporter
T3 sequence (P06536 524-795 F620S/C656G limits assumed): T1 sequence (P06536 524-795 F620S/C656G limits assumed)
T3 sequence (P0ABQ4 1-159): T1 sequence (P0ABQ4 1-159)
Description: as §1, §2

[4] = target: T4, LexA (GSG)2mDHFR / B42 rGR2 (UniProt P00375+P06536, C656G/F620S); assay: β-galactosidase activity assay, strain V502Y
T4 construct: rat Glucocorticoid Receptor (aa 524-795) with point mutations; expressed in transfected cells; host or cells: S. cerevisiae FY250
T4 sequence (P00375 1-187): T2 sequence (P00375 1-187)
T4 sequence (P06536 524-795 F620S/C656G limits assumed): T1 sequence (P06536 524-795 F620S/C656G limits assumed)
Description: as §1, §2

[5] = target: T5, LexA eDHFR / B42 (GSG)rGR2 (UniProt P06536+P0ABQ4, C656G/F620S); assay: β-galactosidase activity assay, strain V494Y
T5 construct: rat Glucocorticoid Receptor (aa 524-795) with point mutations; expressed in transfected cells; host or cells: S. cerevisiae FY250
T5 sequence (P0ABQ4 1-159): T1 sequence (P0ABQ4 1-159)
T5 sequence (P06536 524-795 F620S/C656G limits assumed): T1 sequence (P06536 524-795 F620S/C656G limits assumed)
Description: as §1, §2

LexA eDHFR / B42 rGR2 = target: T6, LexA eDHFR / B42 rGR2 (UniProt P06536+P0ABQ4, C656G/F620S); assay: β-galactosidase activity assay, strain V493Y
T6 construct: rat Glucocorticoid Receptor (aa 524-795) with point mutations; expressed in transfected cells; host or cells: S. cerevisiae FY250
T6 sequence (P0ABQ4 1-159): T1 sequence (P0ABQ4 1-159)
T6 sequence (P06536 524-795 F620S/C656G limits assumed): T1 sequence (P06536 524-795 F620S/C656G limits assumed)
Description: as §1, §2

[6] = target: T7, LexA (GSG)2rGR2 / B42 eDHFR (UniProt P06536+P0ABQ4, C656G/F620S); assay: β-galactosidase activity assay, strain V506Y
T7 construct: expressed in transfected cells; host or cells: S. cerevisiae FY250 with pMW106 lacZ reporter
T7 sequence (P06536 524-795 F620S/C656G limits assumed): T1 sequence (P06536 524-795 F620S/C656G limits assumed)
T7 sequence (P0ABQ4 1-159): T1 sequence (P0ABQ4 1-159)
Description: as §1, §2

LexA mDHFR / B42 rGR2 = target: T8, LexA mDHFR / B42 rGR2 (UniProt P00375+P06536, C656G/F620S); assay: β-galactosidase activity assay, strain V495Y
T8 construct: rat Glucocorticoid Receptor (aa 524-795) with point mutations; expressed in transfected cells; host or cells: S. cerevisiae FY250
T8 sequence (P00375 1-187): T2 sequence (P00375 1-187)
T8 sequence (P06536 524-795 F620S/C656G limits assumed): T1 sequence (P06536 524-795 F620S/C656G limits assumed)
Description: as §1, §2

[7] = target: T9, LexA (GSG)2mDHFR / B42 gly6rGR2 (UniProt P00375+P06536, C656G/F620S); assay: β-galactosidase activity assay, strain V503Y
T9 construct: expressed in transfected cells; host or cells: S. cerevisiae FY250 with pMW106 lacZ reporter
T9 sequence (P00375 1-187): T2 sequence (P00375 1-187)
T9 sequence (P06536 524-795 F620S/C656G limits assumed): T1 sequence (P06536 524-795 F620S/C656G limits assumed)
Description: as §1, §2

[8] = target: T10, LexA (GSG)2rGR2 / B42 (GSG)2mDHFR (UniProt P00375+P06536, C656G/F620S); assay: β-galactosidase activity assay, strain V512Y
T10 construct: rat Glucocorticoid Receptor (aa 524-795) with point mutations; expressed in transfected cells; host or cells: S. cerevisiae FY250
T10 sequence (P06536 524-795 F620S/C656G limits assumed): T1 sequence (P06536 524-795 F620S/C656G limits assumed)
T10 sequence (P00375 1-187): T2 sequence (P00375 1-187)
Description: as §1, §2

Which B-gal activity [1] does the source give for `C[C@@H]1C[C@H]2C3CCC4=CC(=O)C=C[C@]4(C)[C@@]3(F)[C@@H](O)C[C@]2(C)[C@@]1(O)C(=O)NCCSCc1cccc(CSCC[C@H](NC(=O)c2ccc(N(C)Cc3cnc4nc(N)nc(N)c4n3)cc2)C(=O)O)c1` (stereo partly shown) [DM1] here?
The B-gal activity was 4368 β-galactosidase units.

And the B-gal activity [2]?
Its B-gal activity is −113 β-galactosidase units.

And the B-gal activity [3]?
The B-gal activity was 307 β-galactosidase units.

And the B-gal activity [4]?
Its B-gal activity is 21 β-galactosidase units.

And the B-gal activity [5]?
The B-gal activity was 9976 β-galactosidase units.

What about the B-gal activity (LexA eDHFR / B42 rGR2) of the same compound?
The B-gal activity was 5753 β-galactosidase units.

What about the B-gal activity [6] of the same compound?
Its B-gal activity is 519 β-galactosidase units.

What about the B-gal activity (LexA mDHFR / B42 rGR2) of the same compound?
Its B-gal activity is 15 β-galactosidase units.

And the B-gal activity [7]?
Its B-gal activity is −5 β-galactosidase units.

And the B-gal activity [8]?
The B-gal activity was −1 β-galactosidase units.
